Data published in publication PMC7383220 (BioFactors (Oxford, England), 2018).

Assays:
aldoketo reductase 1B10 = conditions: read-out: Ki against aldoketo reductase 1B10; tumor marker; cited from earlier work
[1] = orally administered; cited from earlier work
Hela cells = experiment: Toxicity of BDMC on Hela cells; format: cell-based, human; conditions: within experimental concentration (maximal 8 μM)
[2] = estimated from in vivo metabolism of curcumin and demethoxycurcumin; cited from earlier work
UGT1A1 [3] = target: T1, UGT1A1 (Homo sapiens, UniProt P22309); experiment: Glucuronidation kinetics by expressed UGT1A1; conditions: human, recombinant UGT1A1, pH 7.4
T1 sequence (P22309 26-533): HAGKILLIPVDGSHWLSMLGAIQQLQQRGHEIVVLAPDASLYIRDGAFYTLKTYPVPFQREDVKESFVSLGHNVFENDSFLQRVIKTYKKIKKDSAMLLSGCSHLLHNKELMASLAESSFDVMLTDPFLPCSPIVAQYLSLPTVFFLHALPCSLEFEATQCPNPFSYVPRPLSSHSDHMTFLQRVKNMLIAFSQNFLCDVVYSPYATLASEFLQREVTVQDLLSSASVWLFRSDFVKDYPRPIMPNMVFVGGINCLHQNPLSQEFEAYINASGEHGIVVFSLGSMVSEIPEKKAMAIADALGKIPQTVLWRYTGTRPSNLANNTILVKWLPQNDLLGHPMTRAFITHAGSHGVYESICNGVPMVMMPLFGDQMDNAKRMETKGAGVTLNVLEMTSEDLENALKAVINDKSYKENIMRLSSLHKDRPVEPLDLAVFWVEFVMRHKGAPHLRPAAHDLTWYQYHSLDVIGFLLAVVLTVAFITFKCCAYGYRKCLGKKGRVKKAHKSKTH

UGT1A1 [4] = target: T1, UGT1A1; experiment: Glucuronidation kinetics by HeLa1A1 cell lysate; conditions: human, HeLa1A1 cell lysate (HeLa cells expressing UGT1A1), pH 7.4
HeLa1A1 cells = experiment: BDMC-O-glucuronide excretion experiments in HeLa1A1 cells; format: cell-based, human; conditions: inhibitor 5 and 20 μM, 5 μM BDMC, versus control
BCRP [5] = conditions: read-out: IC50 as BCRP inhibitor; cited from earlier work
UGT1A1 [6] = target: T1, UGT1A1; format: biochemical; conditions: inhibitor 5 and 20 μM
HeLa1A1 cell lysate = target: T2, HeLa1A1 cell lysate (Homo sapiens, UniProt P22309); format: biochemical; conditions: inhibitor 5 and 20 μM
T2 sequence (P22309 26-533): T1 sequence (P22309 26-533)

BCRP [7] = conditions: read-out: Ki as BCRP inhibitor in vitro; cited from earlier work

Question: Which Ki (aldoketo reductase 1B10) does the source give for `O=C(/C=C/c1ccc(O)cc1)CC(=O)/C=C/c1ccc(O)cc1` [BDMC, Bisdemethoxycurcumin] here?
Answer: 22 nM

Question: And the “Glucuronide in general blood circulation” value [1]?
Answer: Approximately 50 nM

Question: And the “Glucuronide/sulfate conjugates in general blood circulation” value [1]?
Answer: about 10 nM

Question: And the “Toxicity on Hela cells” value (Hela cells)?
Answer: no significant toxicities

Question: And the “Fraction of ingested compound excreted in feces without absorption” value [2]?
Answer: over 75%

Question: And the microsomal CLint (UGT1A1 [3])?
Answer: 235 ± 34.5 µL/min/mg

Question: And the microsomal CLint (UGT1A1 [4])?
Answer: 164 ± 19.8 µL/min/mg

Question: With `COc1ccc2c3c([nH]c2c1)[C@H](CC(C)C)N1C(=O)[C@H](CCC(=O)OC(C)(C)C)NC(=O)[C@@H]1C3` [Ko143] as the compound, how does the “Increase of intracellular levels of BDMC-O-glucuronide” value (HeLa1A1 cells; cells collected at 2 h) read?
Answer: 28.8–48.1%

Question: And the “Decrease of BDMC-O-glucuronide excretion” value (HeLa1A1 cells)?
Answer: 18.4–55.6%

Question: What about the “Effect on glucuronidation of BDMC by UGT1A1 enzyme” value (UGT1A1 [6]) of the same compound?
Answer: inhibit

Question: What about the “Effect on glucuronidation of BDMC by HeLa1A1 cell lysate” value (HeLa1A1 cell lysate) of the same compound?
Answer: inhibit

Question: With `COc1cc(/C=C/C(=O)CC(=O)/C=C/c2ccc(O)c(OC)c2)ccc1O` [curcumin] as the compound, how does the Ki (BCRP [7]) read?
Answer: 700 ± 410 nM
